This is an account of results in patent US7423015B1, “Antihelminthic drugs as a treatment for hyperproliferative diseases” (Board of Regents, The University of Texas System, priority 2001, dated 2008).

One test relates to H549. Description: Cell viability, trypan blue cell count assay. It counts as cell-based. The conditions noted are these: Homo sapiens, H549 (lung, wild-type p53), 100% = untreated cells. The method, then:
(§1) All cell lines were grown in RPMI 1640 medium supplemented with 5% fetal bovine serum and 5% CO2. All experiments were done when the cells were 70% confluent. For cell growth measurements, 5×10^4 cells were plated in each well of six-well plates. Control and BZ-treated (0.05 μg/ml) cells were trypsinized and counted using a hemocytometer. Experiments were done in triplicate and the mean and standard deviation were determined by standard methods.
(§2) To further investigate the relationship between the induction of functional p53 and the subsequent apoptosis mediated by these drugs, the inventors posited that if BZs require wild-type p53 in order to exert their effect, then fenbendazole and mebendazole would not be cytotoxic to the many tumor lines producing a mutated p53 protein. To investigate this possibility, human cell lines derived from NSCLC origins of differing p53 status were further analyzed by a 5-day cell growth assay. The cells were plated onto a six-well plate, and the viability of the cells was determined by trypan blue exclusion. Cells were counted on a hemocytometer. The values shown are the means ±standard deviation of triplicate samples. Duplicate experiments gave similar results. H322 is a human lung adenocarcinoma line that produces a mutant p53 protein. […] However, fenbendazole and mebendazole induced nuclear accumulation of p53 only in the H460 cell line, which carries wild-type p53 genes. […] Cells were exposed to FZ (filled bar) or MZ (hatched bar) for 24 hr. A concentration of 0.05 μg/ml FZ and MZ was used. An immunoblot analysis of nuclear p53 was also performed to determine whether these drugs induced the production of p53. Equal amounts of protein extracts from each cell line before and after treatment were used for this analysis.

The next test concerns Saos-2. The test can be described thus: Cell viability, trypan blue cell count assay. The note with it: Homo sapiens, Saos-2 (osteosarcoma, p53 deleted), 100% = untreated cells. The format is cell-based.
A further test relates to H322. The test can be described thus: Cell viability, trypan blue cell count assay. It counts as cell-based. Set-up: dose or concentration left out as unconfirmed. The note with it: Homo sapiens, NCI-H322, read-out: % Cell Viability. The method, then:
as §1, §2

The test system of another test is MDA 231. The test can be described thus: Cell viability, trypan blue cell count assay. It counts as cell-based. Set-up: dose or concentration left out as unconfirmed. The note with it: Homo sapiens, MDA-MB-231, read-out: % Cell Viability. The method, then: as §1, §2
Another test has as its system RD. Description: Cell viability, trypan blue cell count assay. The note with it: Homo sapiens, read-out: % Cell Viability. It counts as cell-based. Set-up: dose or concentration left out as unconfirmed. How it is done: as §1, §2
Another test has as its system SW480. The test can be described thus: Cell viability, trypan blue cell count assay. The note with it: Homo sapiens, SW480, read-out: % Cell Viability. It counts as cell-based. Set-up: dose or concentration left out as unconfirmed. The method, then: as §1, §2
A further test deals with SiHa. Description: Cell viability, trypan blue cell count assay. The format is cell-based. The conditions noted are these: Homo sapiens, SiHa (cervical, wild-type p53 inactivated by E6), 100% = untreated cells.
The next test deals with p53 protein. The test can be described thus: p53 protein stability, pulse-chase with cycloheximide in H460. The format is cell-based, human.
Test [1] has as its system H1299 (p53 deleted), H322 (p53 mutated), H460 (wt p53) and A549 (wt p53) human lung cancer cell lines. Description: 3-day growth assay with Ad5p53 and FZ. The format is cell-based. How it is done:
In those assays, growing, cultured cells were trypsinized and plated (10^4 cells/well) and then infected the next day with Ad5p53 at 1 MOI. Viral supernatant was then added, after which cells were incubated for 24 h, washed with PBS, fed fresh medium or incubated with medium containing FZ for 24 h, washed again, and fed fresh medium. In contrast, uninfected cells (controls) were treated with FZ for 24 h, washed with PBS, fed fresh medium, and then subjected to a 3-day growth assay (FIG. 4A).

The subject of a further test is normal fibroblast. Description: In vitro proliferation assay with MZ, cell count. It counts as cell-based, human. The note with it: 24 h treatment. How it is done: Cells of the human non-small cell lung cancer (NSCLC) cell line A549, WI-38 normal fibroblast (American Type Culture Collection, Rockville, Md.) and H460 (a gift from Drs. Adi Gazdar and John Minna. University of Texas Southwestern Medical Center, Dallas) were seeded on culture plates (2×10^4 cells/well) in F12 and RPMI medium, respectively, supplemented with 10% heat-inactivated fetal calf serum and antibiotics. HUVEC were grown in medium supplemented with growth factor (Clonetics, San Diego). The cells were then exposed to MZ dissolved in dimethyl sulfoxide (DMSO) when grown to 40-50% confluence. Cell growth was monitored by counting the cells using a hemocytometer.
Initially, the inventors examined the effect of MZ on proliferation of human lung cancer cell lines (H460 and A549) in vitro.

Test [2] relates to A549 metastatic lung colonies. Description: Lung metastases in vivo after tail vein injection. The arrangement: species or system female nude mice. How it is done: To establish lung metastases, female nude mice were injected intravenously via tail vein with 10^6 A549 tumor cells suspended in […] of sterile PBS. Six days later, mice were divided into two groups of 5 mice each and treated. Group 1 received no treatment and group 2 received the experimental MZ drug orally at 1 mg of drug (100 μl) twice a week for 3 weeks. After 3 weeks, animals were euthanized by CO2 inhalation. Lungs from each of the mice from the two groups were injected intra-tracheally with India ink and fixed in Feketes solution. The therapeutic effect of MZ treatment was determined by counting the number of metastatic tumors in each lung under a dissecting microscope without knowledge of the treatment groups. The experiments were performed three times and data analyzed and interpreted as statistically significant if the p value was <0.05 by the Mann-Whitney rank-sum test.
Next, the inventors asked whether treatment with MZ would inhibit the growth of human metastatic lung cancer cells in vivo. About 300 metastatic colonies appeared on untreated mice 21 days after A549 cell injection into the tail vein (FIG. 6). This technique was reproducible as the totals blindly counted by two investigators differed by less than 10%. This experiment was performed three times with similar results. The oral administration of […] MZ reduced mean colony count to 80% of the mean value for controls (P<0.0001).

A further test has as its system H460 NSCLC cells. Description: Cell cycle profiles by FACS, MZ and vinorelbine. It counts as cell-based, human. How it is done:
FIG. 10. MZ Enhances activity of anti-mictotic drugs in H460 NSCLC cells. H460 cells were treated with low dose of MZ or Vinorelbine. Cell cycle profiles indicating G1/S G2-Mphases were analyzed by FACS.
The doses of MZ and vinorelbine were chosen to be “sub-therapeutic”. […] Thus, in H460 NSCLC cells mebendazole enhances the activity of anti-mitotic drugs.
For orientation: Flow cytometry measures light scatter and fluorescence of single cells or particles in a stream.

Test [3] has as its system H460 NSCLC cell lines resistant to taxol or vinorelbine. The test can be described thus: Cell death of microtubule drug resistant cells. The format is cell-based, human. The note with it: MZ 0.5 μM, 48 h time point. The method, then: The inventors have developed H460 NSCLC cell lines that are resistant to the microtubule drugs: taxol (7 nM) or vinorelbine (9 nM). These cell lines show a marked cross resistance to each other. For example Taxol resistant cells show resistance to Vinorelbine mediated cell death. […] Thus, MZ can be effectively used for killing multi-drug resistant (MDR) cells in a clinical setting.

Description for p53 protein: Cells were treated with 0.05 μg/ml fenbendazole or mebendazole for 24 h. After this, control (mock-treated) and drug-treated H460 cells were incubated with 10 μg/ml cycloheximide in drug-free medium for different times and then processed to obtain total cell extracts. Finally, samples were denatured by boiling them in SDS-loading buffer (100 mM Tris, pH 6.8; 2% SDS; 0.1% bromphenol blue; 10% glycerol; 25 μM β-mercaptoethanol) and loaded onto a 10% SDS-polyacrylamide gel. Blots were probed with anti-p53 monoclonal antibody B p53-12 (Santa Cruz Biotechnology, Inc.) and anti-actin monoclonal antibody (Amersham). The immunocomplexes were detected using the Enhanced Chemiluminescence kit according to the manufacturer's directions as described above. The intensities of the bands were quantitated with a PhosphoImager using ImageQuant™ Software (Molecular Dynamics, Sunnyvale, Calif.).
H460 cells were treated with 0.05 μg/ml FZ for 24 hr, and then both untreated control and treated cells were washed with PBS and treated with 24 μg/ml cyclohexamide. After that, cells were harvested at different times. The total cell protein was extracted and analyzed on a 10% polyacrylamide-gel, followed by Western blot analysis using p53 and actin monoclonal antibodies. […]
Data from the pulse-chase experiments were quantitated with a PhosphoImager using ImageQuant™ software. […]

With `COC(=O)Nc1nc2ccc(Sc3ccccc3)cc2[nH]1` [Fenbendazole, methy 5-(phenylthio)-2-benzimidazole-2-carbamate], the figures for the viability at 0.05 µg/mL in the test with H549, with Saos-2 and in the test with SiHa were 46.4 ± 13.3%, 76.5 ± 5.9% and 94.5 ± 7.4%, respectively. Also, the viability (usually the share of living cells, or the viability signal relative to a control) was 65.9 ± 4.9% with H322, 65.3 ± 5% with MDA 231, 78.7 ± 12% with RD and 70.6 ± 7.6% in the test with SW480. Further, the “effect on half-life of the p53 protein” value with p53 protein is “prolong the half-life”. Also, the “cell growth after FZ alone, p53-mutated and deleted cells” value in [1] (0.05 μg/ml FZ for 24 h) is given as “not growth inhibited”. The “growth inhibition after FZ alone, wt p53 H460 cells” value in test [1] (0.05 μg/ml FZ for 24 h) is given as “significantly so”. In test [1] (Ad5p53-transduced cells (1 MOI, 24 h) treated with FZ for 24 h, all four cell lines, 3-days growth assay), the “cell growth after Ad5p53 plus FZ” value is reported as “striking growth inhibition”.

As for `COC(=O)Nc1nc2ccc(C(=O)c3ccccc3)cc2[nH]1` [Mebendazole, Methyl 5-benzoylbenzimidazole-2-carbamate], the viability at 0.05 µg/mL was determined as 39.2 ± 10.7% in the test on H549, 65.4 ± 10.1% in the test on Saos-2 and 91.3 ± 8.6% in the test on SiHa. Besides, the viability with H322 came to 68.5 ± 3.7%; in the test with MDA 231, 66.2 ± 15.8%; in the test with RD, 72.2 ± 2.8%; in the test with SW480 it was 63.6 ± 13.3%. In the test with p53 protein, the “effect on half-life of the p53 protein” value was “prolong the half-life”. The “effect on growth of normal fibroblast” value in the test on normal fibroblast is listed as “no effect”. The “size of tumor colonies (transverse diameter)” value in test [2] (H and E staining of lung tissues) is “significantly reduced”. The “mean colony count, % of the mean value for controls” value in [2] (oral administration of 1 mg/ml MZ, 21 days after A549 injection, P<0.0001) came to 80%. For the same compound, in the test with H460 NSCLC cells (24-48 hr cultures), the “apoptosis (sub-G0 cells) under combination of MZ and vinorelbine” value is recorded as “pronounced apoptosis”. The “interaction of MZ combined with Vinorelbine” value in the test with H460 NSCLC cells (low doses of both drugs) is listed as “synergistic interaction”. In addition, the apoptosis under monotherapy result in the test on H460 NSCLC cells (sub-therapeutic low dose) is on record as “No apoptosis”. Besides, in [3], the cell death is given as 40-70%.
